# According to patent US5637319A, “Controlled-release preparations” (priority 1995, dated 1997):
# B1: rhG-CSF: recombinant human granulocyte colony-stimulating factor, given orally as the capsule of Example 6 (protein, UniProt P09919 31-207, looked up)
# Granulocyte …: TPLGPASSLPQSFLLKCLEQVRKIQGDGAALQEKLVSECATYKLCHPEELVLLGHSLGIPWAPLSSCPSQALQLAGCLSQLHSGLFLYQGLLQALEGISPELGPTLDTLQLDVADFATTIWQQMEELGMAPALQPTQGAMPAFASAFQRRAGGVLVASHLQSFLEVSYRVLRHLAQP
# What was measured:
# [1] = after sulfasalazine to dogs; J. Pharm. Pharmacol., 1995 in press; cited from earlier work
# [2] = Release study of cisplatin capsules with different pore number and amount of gel-forming polymer (FIGS. 1a-c, 2a-c); assay type: physicochemical
# Text: The release rate of extremely hydrophilic low-molecular weight drug such as cisplatin from the sustained-release preparation is affected by the following three factors; (1) pore number made on the water-insoluble polymer, (2) pore size and (3) amount of gel-forming material inside the preparation. From the standpoint of mechanical operation of opening many uniform pores, the pore size was fixed to be 800 μm. Under the fixed pore size condition, the effects of the pore number was at first examined and the release patterns of cisplatin from the preparations are shown in FIGS. 1a, b and c. […] The release study data are summarized with respect to the effect of the amount of gel-forming polymer and the results are shown in FIGS. 2a, b and c.
# The test was performed according to the procedure of the paddle method (JPXII). A dissolution media employed were the 1st solution (JPXII, pH 1.2) and the 2nd solution (JPXII, pH 6.8). Nine hundred ml of the dissolution medium was used at 37°±0.1° C. at 100rpm. Test capsule was put into a stainless sinker. After being enclosed in the sinker, the capsule was put into 900 ml of the 1st solution maintained at 37° C. The shaft was then placed in the fluid at 37° C. and the paddle was rotated at 100 rpm. To simulate the transit from gastric to intestinal pH, samples of 1st solution were replaced one hour later with the 2nd solution. The release profile of 5-FU was estimated by measuring the appearance of the drug by HPLC method. The cisplatin concentration was estimated by analyzing for platinum by atomic absorption spectrophotometry.
# [3] = Serum cisplatin concentration after oral administration to rabbits; assay type: in vivo, rabbit; conditions: sustained-release preparation
# Method: The effects of the pore number and the amount of gel-forming polymer on the release profiles of cisplatin was confirmed in the in vivo study after oral administration of the preparations to rabbits using a reference preparation, cisplatin solution, at 20 mg/kg. […] The absorption rate of cisplatin is so rapid that the serum peak level appears within 1 hr.
# In case of preparations of which drug release mechanism is based on the intestinal pressure, drug release profiles of the preparations in Examples 4, 5, 6, 7 and 8 cannot be measured by in vitro release experiments. In addition, in the case of sustained-release preparations in Examples 9, 10 and 11, the long-acting efficiency must be confirmed in the in vivo animal study after oral administration. Therefore, in vivo pharmacokinetics study was performed using beagle dogs and rabbits. In the in vivo study, the preparations of the Examples except examples 6, 10 and 11 were administered to dogs and rabbits, respectively. […] These plasma and serum samples were immediately frozen in a deep freezer at -20° C. until analyzed.
# Plasma 5ASA and 5-FU concentrations were measured by an HPLC method after extraction of the drug from the plasma sample. The serum cisplatin level was determined by analyzing for platinum by atomic absorption spectrophotometry. The plasma calcitonin level was determined by an ELISA method.
# [4] = dog, po
# Text: FIG. 18. Relationship between the thickness of EC layer of intestinal pressure controlled-release capsules and plasma fluorescein Tmax after oral administration to beagle dogs.
# [5] = design: species or system beagle dog; conditions: dog, in vivo
# Method: The peak time, Tmax, when the plasma 5-FU level reaches to its maximum level is used as a parameter for estimating the release time of drug in the GI tract after oral administration. […] According to the report of Anderson ([…]), for the dog, gastric emptying is 3-5 h, small intestine transit time is about 1 h and colonic transit time is 10-12 hr. On the other hand, Mizuta et al. (1989) reported that the small intestinal transit time in beagle dog is 3.0±1.4 h. Additionally, the transit of the test preparation was monitored by a direct examination of the dog intestine by abdominal incision. In this study, the delivery of these preparations to the ascending colon at 4 hr after administration was confirmed. In addition, to estimate the colon arrival time in the beagle dogs, sulfasalazine which is a pro-drug of 5ASA and is cleaved to sulfapyridine and 5ASA in the colon by azo-reductase of intestinal microflora was administered to the dogs. Sulfapyridine starts to appear in the blood circulation at 4 hr after administration and reaches to its maximum concentration at 10-12 hr (J. Pharm. Pharmacol., 1995 in press). Accordingly, colon arrival time has been estimated to be 4 hr in our beagle dogs.
# [6] = test system: blood total leukocyte (BTL) count; test: Pharmacodynamic study: blood total leukocyte (BTL) count after oral administration of rhG-CSF capsule to beagle dogs; assay type: in vivo, beagle dog; conditions: 25 μg/kg oral, three dogs
# Method: The test capsule, a preparation of Example 6, was orally administered to beagle dogs. At 30 min before drug administration, 0.6 ml of the blank blood sample was removed from the dog jugular vein. After administration, 0.1 ml of blood samples were collected at 10, 24, 36, 48, 60, 72 and 96 h. […] of the blood sample was used for blood total leukocyte (BTL) count. The BTL count was performed by microcell counter CC-180A (Sysmex, Toa Medical Electronics). The BTL count is expressed as a relative value, which is obtained by the respective control BTL count, namely the pre-dosing BTL count.
molecule,measurement,setting,value
"Nc1ccc(S(=O)(=O)Nc2ccccn2)cc1 [Sulfapyridine, sulfapyridine]",time at which sulfapyridine starts to appear in the blood circulation,[1],4 h
N.N.[Cl][Pt][Cl] [cisplatin],"release rate of cisplatin, effect of pore number",[2]; gel-forming polymer 100 mg,the pore number did not affect the release rate of cisplatin any more
same,effect of increase of the amount of gel-forming polymer on release,[2]; pore number 20,the effect of the increase of the amount of gel-forming polymer did not appear
same,"release rate of cisplatin, effect of pore number","[2]; pore number 20 to 30, gel-forming polymer 25 mg and 50 mg",the release rate of cisplatin increases
same,"release rate of cisplatin, effect of amount of gel-forming polymer","[2]; pore number 30 and 60, gel-forming polymer 25 mg to 50 mg",the release rate of cisplatin decreases
same,prolonged effect of pore number,"[2]; pore number 30 to 60, gel-forming polymer 25 mg and 50 mg",prolonged effect was not observed
same,"serum cisplatin levels, effect of pore number","[3]; pore number 20 to 30, carbopol 25 mg (FIG. 4)",significantly increases as the pore number increases from 20 to 30
same,"serum cisplatin level vs. time curves, effect of amount of gel-forming polymer",[3]; pore number 30 (FIG. 5),there is not a significant difference
O=C1OC2(c3ccc(O)cc3Oc3cc(O)ccc32)c2ccccc21 [fluorescein],capsule thickness vs. in vivo Tmax,[4],good corelationship between the capsule thickness and the in vivo Tmax
O=C(O)c1cc(/N=N/c2ccc(S(=O)(=O)Nc3ccccn3)cc2)ccc1O [sulfasalazine],colon arrival time,[5],4 h
B1,BTL count relative to pre-dose level,[6],1.3 folds of pre-dose level
same,time at which BTL count starts to increase,[6],10 h
same,BTL count return to the normal level,[6]; end of the experiment,96 h
